Data: US20230079732A1, “OPAL PEPTIDE ADMINISTRATION” (priority 2020, published 2023)
Like-named read-outs stand apart in the source and are kept apart here.

How the values were obtained:
[1] = Uptake of radiolabeled insulin-quantum dot conjugate after oral administration; details: 30 minutes after oral administration, healthy rodents
Procedure: (§1) Conjugates of radiolabeled insulin and quantum dots were produced in a method as described above, albeit with radiolabeled insulin used instead of native insulin. Two groups of healthy rodents were then orally administered either a dose of conjugates or equivalent radiolabeled unbound insulin. The distribution of radioactivity was then monitored 30 minutes after administration.

[2] = test system: blood glucose; assay: Glucose tolerance test with an oral dose of conjugate (FIG. 4); format: in vivo, rodents; details: for effect on blood glucose after glucose gavage: 30 minutes before glucose gavage, monitored 90 minutes (FIG. 4 legend)
Procedure: Each subject was then monitored for blood glucose over the 90 minutes after receiving the glucose gavage.
A population of 30 healthy rodents without diabetic symptoms were obtained, and were divided into six treatment groups: one group of 5 rodents received 2 IU/kg of insulin by intraperitoneal injection 30 minutes prior to a glucose gavage; one group received 100 IU/kg of insulin by via oral gavage 30 minutes prior to a glucose gavage; […] gavage; one group of 5 […] gavage and one group of five rodents were given only a glucose gavage. Blood glucose of all rodents were then monitored over 90 minutes post-glucose gavage.

[3] = Biodistribution of ^14C radiolabelled insulin (FIG. 6); details: for main location of radiolabelled insulin: after 30 minutes, mice fasted 4 hours
Procedure: Tissue samples and blood plasma were prepared for radiolabel component analysis according to standard methods. Data is presented in this figure is as a percentage of radiolabel insulin relative to the administrated dosage, data is shown as mean±SD.
Three mice treatment groups were fasted for 4 hours before given either an oral gavage of insulin (Oral INS), a subcutaneous injection of insulin (SC-INS) or an oral gavage of QD-insulin conjugate (QD-INS) at 2 IU/kg doses.

[4] = test system: blood glucose; assay: Insulin tolerance test in diabetic NOD/Scid mouse model (FIG. 8); format: in vivo, NOD/Scid mice; details: oral gavage versus subcutaneous injection
Procedure: NOD mice with a blood glucose below […] were treated with SC-INS (1 IU/kg) or QD-INS (25 IU/kg) at time 0, mice with a blood glucose above […] were treated with 4 IU/kg SC-INS or 100 IU/kg QD-INS. Blood glucose samples were collected at −15, 0, 15, 30, 45 and 60 mins. […] Data points showing the mean±SD.
Blood glucose was measured used a handheld Glucometer using Accu-check proforma strips. Blood was collected by tail vein sampling following a tail snip. Blood glucose was collected at −15, 0, 15, 30, 45 and 60 mins after a subcutaneous (SC) insulin injection (0.1, 1 or 2 IU/kg) or a gavage of QD-insulin conjugates (10, 20, 30, 40, 50, 75 or 100 IU/kg).

[5] = test system: blood glucose; assay: Oral glucose tolerance test (oGTT), SC-INS versus QD-INS (FIG. 5); format: in vivo, C57BL/6 mice; details: oral gavage 20 IU/kg, 30 minutes before oGTT
Procedure: A further study was carried out on healthy rodents without diabetic symptoms comparing a saline subcutaneous injection (control), a subcutaneous injection of insulin (SC-INS, 2 IU/kg), or an oral gavage of oral-insulin (QD-INS, 20 IU/kg) 30 minutes before a glucose tolerance test (oGTT).

[6] = in vivo, po
Procedure: as §1

Substance	radioactive label found in the liver [1]	blood glucose lowering, no spike after glucose gavage ([2]; 2 IU/kg by intraperitoneal injection 30 minutes prior to glucose gavage (Example 3))	effect on blood glucose after glucose gavage ([2]; intraperitoneal injection equivalent to 0.1 IU/kg insulin)	main location of radiolabelled insulin ([3]; oral gavage 2 IU/kg)	main location of radiolabelled insulin ([3]; subcutaneous injection 2 IU/kg)	location of radiolabelled insulin ([3]; after 2 hours, oral gavage 2 IU/kg)	radiolabelled insulin located in the liver ([3]; after 2 hours, subcutaneous injection 2 IU/kg)	effect on blood glucose after glucose gavage ([2]; oral gavage equivalent to 20 IU/kg insulin)	blood glucose lowering effects compared with the injected insulin ([2]; orally administered)	blood glucose lowering, no spike after glucose gavage ([2]; quantum dot insulin group, oral, 30 minutes prior to glucose gavage (Example 3))	QD-insulin dose relative to the SC-insulin dose that resulted in similar glucose reductions [4]	lowering of blood glucose levels in oGTT compared with injected insulin (SC-INS, 2 IU/kg) [5]	radioactive label found in the liver [6]
insulin	approximately 1%	effective in lowering blood glucose	reduced the blood glucose of the rodent subjects by an approximately equivalent amount	mainly located in the small bowel	found in the liver and blood	still located in the bowel	about 50%						
QD-insulin: Ag2S quantum dot conjugated to insulin by EDC/NHS, then assembled with chitosan with galactose or glucose biopolymer								reduced the blood glucose of the rodent subjects by an approximately equivalent amount	equal, if not better	effective in lowering blood glucose	about 25 times	as effective	Approximately 50%
